Source: patent publication US20120058208A1 (SYNTHITE INDUSTRIES LTD., priority 2010, published 2012)

Legend:
[1] = given dose 50 mg/kg; adjuvant given with curcumin; cited from earlier work
HCT-116 human xenograft = test: In vivo anti-cancer activity in human colorectal (HCT-116) xenograft model in SCID mice
Experimental: Human colorectal (HCT-116) xenograft model in SCID mice
Five-week-old female mice purchased from the Advanced Centre for Treatment, Research and Education in Cancer (ACTREC) were used for in vivo experiments. The Institutional Animal Ethics Committee (IAEC) approved the in vivo study. Animals were injected with 1×10^6 HCT-116 cells subcutaneously in the flank region. Animals were monitored daily during the period between inoculation and palpable tumor growth. Tumor size was measured with a digital Vernier caliper and tumor-bearing mice were randomized into control and treatment groups (n=8), when the tumor volume was attained ˜100 mm^3. […] Tumor volume and was body weight was measured twice weekly. The following formula was used to calculate the tumor volume: Tumor volume=[…]. Percent reduction in tumor growth was calculated with respect to the Vehicle treated group.

**Q.** With `O=C(/C=C/C=C/c1ccc2c(c1)OCO2)N1CCCCC1` [piperine] as the compound, how does the “enhancement of the bioavailability of curcumin” value [1] read?
**A.** 33%

**Q.** What does the source list for `O=C(CCCCCCC(=O)Nc1ccccc1)NO` [Vorinostat]?
**A.** % Redn. (percent reduction in tumor growth with respect to the Vehicle treated group) (HCT-116 human xenograft; 150 mg/kg oral once daily for 28 days): 47%; Tumor volume, Mean ± SE, Day 0 (HCT-116 human xenograft; 150 mg/kg oral once daily, Day 0): 131.6 ± 23.1 mm^3; Tumor volume, Mean ± SE, Day 4 (HCT-116 human xenograft; 150 mg/kg oral once daily, Day 4): 236.6 ± 42.7 mm^3; Tumor volume, Mean ± SE, Day 8 (HCT-116 human xenograft; 150 mg/kg oral once daily, Day 8): 334.4 ± 52.3 mm^3; Tumor volume, Mean ± SE, Day 12 (HCT-116 human xenograft; 150 mg/kg oral once daily, Day 12): 460.6 ± 76.0 mm^3; Tumor volume, Mean ± SE, Day 16 (HCT-116 human xenograft; 150 mg/kg oral once daily, Day 16): 544.6 ± 79.1 mm^3; Tumor volume, Mean ± SE, Day 19 (HCT-116 human xenograft; 150 mg/kg oral once daily, Day 19): 669.6 ± 107.0 mm^3; Tumor volume, Mean ± SE, Day 22 (HCT-116 human xenograft; 150 mg/kg oral once daily, Day 22): 726.0 ± 120.8 mm^3; Tumor volume, Mean ± SE, Day 26 (HCT-116 human xenograft; 150 mg/kg oral once daily, Day 26): 916.6 ± 157.9 mm^3; Tumor volume, Mean ± SE, Day 29 (HCT-116 human xenograft; 150 mg/kg oral once daily, Day 29): 979.1 ± 157.2 mm^3

**Q.** For `CCCCC[C@H](O)CC(=O)CCc1ccc(O)c(OC)c1` [gingerol], which “enhancement of the bioavailability of curcumin” value [1] is on record?
**A.** 43%
